Experimental data: patent US4663325A, “1-(2,3,4-tri-methoxybenzyl)-4[bis(4-fluorophenyl)methyl] piperazines are useful for treating cerebrovascular disease” (Kanebo Ltd., priority 1984, dated 1987)

Columns and labels:
[1] = Acute toxicity (oral, mice); details: mouse, in vivo, fasted male ddY mice, deaths during seven days, Weil method
Experimental: ddY-strain male mice (body weight 18 to 22 g; five per group) were caused to fast 24 hours. Then, each of the compounds of this invention (A, B, C and D) was administered orally, and acute toxicity values (LD50) were determined.
Each of the compounds was dissolved or suspended in a 2% tartaric acid solution containing 20% of dimethylacetamide, and orally administered to the animals. From the number of animals which died during seven days, the LD50 values were calculated by using the Weil method.

vertebral blood flow = assay: Activity of increasing cerebral blood flow (vertebral blood flow as index, anesthetized dogs, intravenous); assay type: in vivo; details: 1 mg/kg i.v. (right femoral vein), anesthetized mongrel dogs
Experimental: The activity of increasing cerebral blood flow was measured by using the amount of vertebral blood flow as an index. Mongrel dogs of either sex (body weight 11 to 18 kg; four per groups) were anesthetized with sodium pentobarbital (30 mg/kg, by intravenous injection), and the right vertebral artery was isolated from the surrounding tissues. A flow probe was attached to it and led to an electromagnetic flow meter (MFV-2100 made by Nihon Kohden Co., Ltd.). The amount of blood flow was periodically measured [see Meth and Find Exptl Clin Pharmacol, 3 (6), 397 (1981)].
Each of the test compounds was dissolved in a 2% tartaric acid solution containing 20% dimethylacetamide, and administered to the right femoral vein in a dose of 1 mg/kg.

[2] = tested on: death induced by collagen and adrenaline; assay: Activity of defending thromboembolism-induced death (collagen and adrenaline, mice, oral); assay type: in vivo, ddY-strain male mice; details: Mus musculus, 1 h, one hour before collagen (400 micrograms/kg) and adrenaline (50 micrograms/kg) i.v., male ddY mice, probit method, read-out: ED50 (dose required to defend death induced by collagen and adrenaline to an extent of 50%)
Experimental: The compounds A, B, C and D of the invention and the comparative compounds 1 and 2 were used.
Each of the test compounds was dissolved or suspended in a 1% gum arabic solution, and orally administered to ddY-strain male mice (body weight 18 to 25 g; five per group). […] The dose required to defend death induced by collagen and adrenaline to an extent of 50% (ED50) was determined by the probit method (see The Journal of Pharmacology and Experimental Therapeutics, Vol. 225, page 57, 1983).

[3] = 0.5 minutes after administration
[4] = 10 minutes after administration
[5] = 20 minutes after administration

Row | SMILES | LD50 at 168 h [1] [mg/kg] | Increase (%) in vertebral blood flow (mean ± standard error) (vertebral blood flow; [3]) [%] | Increase (%) in vertebral blood flow (mean ± standard error) (vertebral blood flow; 3 minutes after administration) [%] | Increase (%) in vertebral blood flow (mean ± standard error) (vertebral blood flow; 5 minutes after administration) [%] | Increase (%) in vertebral blood flow (mean ± standard error) (vertebral blood flow; [4]) [%] | Increase (%) in vertebral blood flow (mean ± standard error) (vertebral blood flow; [5]) [%] | ED50 [2] [mg/kg]
1 | COc1ccc(CN2CCN(C(c3ccccc3)c3ccc(F)cc3)CC2)c(OC)c1.O=C(O)/C=C/C(=O)O (stereo not drawn) [A, 1-(2,4-Dimethoxybenzyl)-4-(4-fluorobenzhydryl)-piperazine fumarate] | 300 | 80.1 ± 17.0 | 56.5 ± 15.0 | 39.1 ± 12.2 | 16.2 ± 5.4 | 11.3 ± 4.1 | 29.6
2 | COc1ccc(CN2CCN(C(c3ccc(F)cc3)c3ccc(F)cc3)CC2)c(OC)c1.Cl.Cl.O.O [B, 1-(2,4-Dimethoxybenzyl)-4-[bis(4-fluorophenyl)-methyl]piperazine dihydrochloride dihydrate] | 225 | 105.6 ± 3.9 | 85.8 ± 15.0 | 77.0 ± 15.6 | 47.5 ± 17.7 | 27.1 ± 13.4 | 24.6
3 | COc1ccc(CN2CCN(C(c3ccccc3)c3ccc(F)cc3)CC2)c(OC)c1OC.O=C(O)/C=C/C(=O)O (stereo not drawn) [C, 1-(2,3,4-Trimethoxybenzyl)-4-(4-fluorobenzhydryl)piperazine fumarate] | 650 | 76.7 ± 15.1 | 61.2 ± 14.9 | 50.6 ± 12.4 | 27.7 ± 6.3 | 16.4 ± 4.6 | 32.7
4 | C(=Cc1ccccc1)CN1CCN(C(c2ccccc2)c2ccccc2)CC1 [Cinnarizine, 1-Cinnamyl-4-benzhydrylpiperazine, reference compound] |  | 65.6 ± 18.2 | 34.7 ± 15.6 | 17.0 ± 8.7 | 2.9 ± 3.8 | 0 | 
5 | COc1ccc(CN2CCN(C(c3ccc(F)cc3)c3ccc(F)cc3)CC2)c(OC)c1OC.Cl.Cl [Compound D, 1-(2,3,4-Trimethoxybenzyl)-4-[bis(4-fluorophenyl)methyl]piperazine dihydrochloride] | 300 | 95.9 ± 14.5 | 102.6 ± 24.5 | 107.0 ± 23.9 | 87.0 ± 21.1 | 65.1 ± 15.3 | 7.7
6 | COc1ccc(CN2CCN(C(c3ccccc3)c3ccccc3)CC2)c(OC)c1OC.Cl.Cl.O [compound 1, 1-(2,3,4-Trimethoxybenzyl)-4-benzhydrylpiperazine dihydrochloride monohydrate, reference compound] |  | 75.3 ± 20.0 | 39.2 ± 15.3 | 25.6 ± 12.5 | 10.0 ± 5.3 | 5.0 ± 3.3 | 55.4
7 | Cl.Cl.c1ccc(C(c2ccccc2)N2CCN(Cc3ccc4c(c3)OCO4)CC2)cc1 [compound 2, 1-(3,4-Methylenedioxybenzyl)-4-benzhydrylpiperazine dihydrochloride, reference compound] |  | 50.6 ± 13.2 | 13.5 ± 6.9 | 7.4 ± 4.9 | 2.5 ± 3.3 | 0.4 ± 2.2 | 44.7
